Converted amounts (≈) assume the structure as drawn. Where two headings read alike, the source gives them in different places. Non-standard residues stand in square brackets, D forms with d. Residues, ends and D or L forms follow the SMILES beside them. No end group written: not given here.
How the values were obtained:
MRSA (B042 V2E1 A) = assay: microbe, parasite or virus in culture; format: cell-based, methicillin-resistant Staphylococcus aureus; conditions: B042 V2E1 A; for MBC: 18 h; for MIC: 24 h
Method: (§1) The antimicrobial activities of peptides were evaluated against the Gram-positive bacteria, S. aureus (ATCC 6538), methicillin-resistant Staphylococcus aureus (MRSA) (NCTC 12493), Enterococcus faecalis (E. faecalis) (NCTC 12697); the Gram-negative bacteria, E. coli (ATCC CRM 8739), Klebsiella pneumoniae (K. pneumoniae) (ATCC 43816), Pseudomonas aeruginosa (P. aeruginosa) (ATCC CRM 9027); and the yeast, Candida albicans (C. albicans) (ATCC CRM 10231). Clinical isolates of MRSA (B042 V2E1 A), E. coli (ATCC BAA-2340), K. pneumoniae (ATCC BAA-1705), and P. aeruginosa (B004 V2S2 B) were also used to determine their antimicrobial activities. The suspension of microorganisms in the logarithmic growth phase with a specific final density (Gram-negative and Gram-positive bacteria: 5 × 10^5 CFU/mL; yeast: 1 × 10^6 CFU/mL) was incubated with different peptide concentrations from 1 µM to 512 µM at 37 °C for 24 h. PBS was used as the negative control, and norfloxacin and amphotericin B were selected as the positive control for bacteria and yeast, respectively. Since the Norfloxacin had weak activities against P. aeruginosa (B004 V2S2 B) and K. pneumoniae (ATCC BAA 1705), gentamicin was used as the positive control for these two bacterial strains. The absorbance of each well was obtained using a microplate reader (EL808, Biolise BioTek, Winooski, VT, USA) set at 550 nm wavelength. The MIC value was the lowest concentration of a peptide that inhibits visible bacterial growth. Once the MIC values were determined, an aliquot from the bacterial culture exposed to the peptide at or above its MIC value was inoculated on a Mueller Hinton agar (MHA) and was incubated at 37 for 18 h. The MBC value was the lowest concentration of a peptide that kills 99.9% of bacteria.

MRSA (NCTC 12493) = assay: microbe, parasite or virus in culture; format: cell-based, methicillin-resistant Staphylococcus aureus; conditions: for MBC: NCTC 12493, 18 h; for MIC: NCTC 12493, 24 h
Method: as §1

[1] = test system: P. aeruginosa (B004 V2S2 B); assay: microbe, parasite or virus in culture; format: cell-based, Pseudomonas aeruginosa; conditions: B004 V2S2 B; for MBC: 18 h; for MIC: 24 h
Method: as §1

[2] = test system: P. aeruginosa (ATCC CRM 9027); assay: microbe, parasite or virus in culture; format: cell-based, Pseudomonas aeruginosa; conditions: for MBC: ATCC CRM 9027, 18 h; for MIC: ATCC CRM 9027, 24 h
Method: as §1

[3] = test system: K. pneumoniae (ATCC BAA-1705); assay: microbe, parasite or virus in culture; format: cell-based, Klebsiella pneumoniae; conditions: for MBC: ATCC BAA-1705, 18 h; for MIC: ATCC BAA-1705, 24 h
Method: as §1

[4] = test system: K. pneumoniae (ATCC 43816); assay: microbe, parasite or virus in culture; format: cell-based, Klebsiella pneumoniae; conditions: for MBC: ATCC 43816, 18 h; for MIC: ATCC 43816, 24 h
Method: as §1

horse red blood cells = format: cell-based
Method: As a previous study described in detail, the haemolysis activity assays of peptides were conducted on defibrinated horse blood (TCS Biosciences Ltd., Buckingham, UK) with an erythrocyte suspension concentration of 2% (v/v). The 120 μL of peptide solution in a gradient concentration ranging from 1µM to 512 µM was mixed with the same volume of 2% horse red blood cell suspension, and the complex was incubated at 37 °C for 2 h. PBS and 0.1% Triton X-100 were chosen as the negative and positive control, respectively. After centrifugation at 900× g for 5 min, the absorbance of the supernatant was analysed using a microplate reader (EL808, Biolise BioTek, Winooski, VT, USA) set to a wavelength of 570 nm. The equation to calculate the haemolysis of the peptides is shown below: Haemolysis (%)=A−An/Ap−An×100% where A represents the absorbance of each treatment group, An represents the average absorbance of the negative control group, and Ap represents the average absorbance of the positive control group.

HaCaT cells = format: cell-based, human; conditions: 24 h
Method: The cytotoxicity of the peptides against the human epidermal keratinocyte line, HaCaT, was tested using the MTT cell viability assay as described in a previous study. The 100 µL of the cell suspension in a complete DMEM medium with a density of 10,000 cells/mL was seeded in a 96-well plate and incubated overnight at 37 °C in a humidified 5% CO2 atmosphere. After 4 h of starvation in a serum-free medium, 100 μL of serial dilutions (from 10^−9 M to 10^−4 M) of temporin-PKE and its analogues was added to each well, and the plate was incubated for 24 h. The serum-free medium and 0.1% Triton X-100 were used as the negative and positive control, respectively. Then, MTT solution, at a volume of 10 μL, was added to each well, and the plate was incubated for 2 h. After this, the medium was replaced by 100 μL of DMSO, and plates were put in the shaking incubator for 15 min. The absorbance of each well was measured using a microplate reader (EL808, Biolise BioTek, Winooski, VT, USA) set to a wavelength of 570 nm. The equation used to calculate the viability of the cells is shown below: Cell viability (%)=A−Ab/An−Ab×100% where A represents the absorbance of each treatment group, Ab represents the average absorbance of the wells in the blank control group (cells not exposed to the test peptide and MTT), and An represents the average absorbance of the wells in the negative control group (cells not exposed to the test peptide).

| Compound | MBC (MRSA (B042 V2E1 A)) [µM] | MIC (MRSA (B042 V2E1 A)) [µM] | MBC (MRSA (NCTC 12493)) | MIC (MRSA (NCTC 12493)) [µM] | MBC ([1]; read-out: MBC) [µM] | MIC ([1]; read-out: MIC) [µM] | MBC ([2]; read-out: MBC) [µM] | MIC ([2]; read-out: MIC) [µM] | MBC ([3]; read-out: MBC) [µM] | MIC ([3]; read-out: MIC) [µM] | MBC ([4]; read-out: MBC) [µM] | MIC ([4]; read-out: MIC) [µM] | HC50 (horse red blood cells; red cells of horse, 2 h) [µM] | IC50 (HaCaT cells) [µM] | MBC [1] [µM] | MIC [1] [µM] | MBC [3] [µM] | MIC [3] [µM] | MBC [2] [µM] | HC50 (horse red blood cells) [µM] | also measured |
| --- | --- | --- | --- | --- | --- | --- | --- | --- | --- | --- | --- | --- | --- | --- | --- | --- | --- | --- | --- | --- | --- |
| CC[C@@H](C)[C@@H](NC(=O)[C@H](CCCCN)NC(=O)[C@@H]1CCCN1C(=O)[C@H](CC(C)C)NC(=O)[C@H](CC(C)C)NC(=O)[C@H](CO)NC(=O)[C@H](CO)NC(=O)[C@H](CC(C)C)NC(=O)[C@H](C)NC(=O)CNC(=O)[C@H](NC(=O)[C@H](NC(=O)[C@H](CC(C)C)NC(=O)[C@@H]1CCCN1C(=O)[C@H](CC(C)C)NC(=O)[C@@H](N)Cc1ccccc1)[C@H](C)CC)[C@H](C)CC)C(=O)N[C@@H](Cc1ccccc1)C(N)=O [Temporin-PKE-3i] (H-FLPL[dI][dI]GALSSLLPK[dI]F-NH2) | 64 (≈ 118 µg/mL) | 64 (≈ 118 µg/mL) | 64 µM (≈ 118 µg/mL) | 64 (≈ 118 µg/mL) | >512 | >512 | >512 | >512 | >512 | >512 | >512 | >512 | 64.0 | 497 |  |  |  |  |  |  |  |
| FLPLIIGKLSSLLPKIF-NH2 [Temporin-PKE-2K] | 2 | 2 | 2 µM | 2 |  |  | 256 | 128 |  |  | 32 | 16 | 19.87 | 9.04 | 32 | 32 | 16 | 16 |  |  | HC50 relative to that of temporin-PKE (horse red blood cells): 3 fold |
| FLPKIIGKLSSLLPKIF-NH2 [Temporin-PKE-3K] | 2 | 2 | 2/2 μM |  |  |  |  |  |  |  |  | 4 | 87.47 | 29.6 | 8 | 8 | 8 | 8 | 16 | 87.47 | MIC (MRSA (NCTC 12493); read-out: MIC): 2 µM; MIC [2]: 16 µM; MBC [4]: 4/4 μM |
| FLPLIIGALSSKLPKIF-NH2 [Temporin-PKE-K12] | 4 | 4 | 4 µM | 4 |  |  |  |  |  |  | 64 | 32 | 122.7 | 19 | 64 | 64 | 64 | 64 | 256 | 122.7 | MIC [2]: 256 µM |
| FLPKIIGKLSSKLPKIF-NH2 [Temporin-PKE-4K] | 16 | 16 | 32 µM | 32 |  |  |  |  |  |  |  |  | 1671 | 251 | 32 | 32 | 32 | 32 | 64 | 1671 | MIC [2]: 64 µM; MBC [4]: 16 µM; MIC [4]: 16 µM |
| FLPLIIGALSSLLPKIF-NH2 [Temporin-PKE] |  |  | 2/2 μM |  | >512 | >512 | >512 | >512 | >512 | >512 | >512 | >512 | 6.58 | 5.04 |  |  |  |  |  | 6.58 | MBC (MRSA (B042 V2E1 A); read-out: MBC): 8 µM; MIC (MRSA (B042 V2E1 A); read-out: MIC): 4 µM; MIC (MRSA (NCTC 12493); read-out: MIC): 2 µM |
| CC[C@@H](C)[C@@H](NC(=O)[C@H](CCCCN)NC(=O)[C@@H]1CCCN1C(=O)[C@H](CC(C)C)NC(=O)[C@H](CC(C)C)NC(=O)[C@H](CO)NC(=O)[C@H](CO)NC(=O)[C@H](CC(C)C)NC(=O)[C@H](C)NC(=O)CNC(=O)[C@@H](NC(=O)[C@@H](NC(=O)[C@H](CC(C)C)NC(=O)[C@@H]1CCCN1C(=O)[C@H](CC(C)C)NC(=O)[C@@H](N)Cc1ccccc1)[C@@H](C)CC)[C@@H](C)CC)C(=O)N[C@@H](Cc1ccccc1)C(N)=O [Temporin-PKE-i] (H-FLPLIIGALSSLLPK[dI]F-NH2) | 4 (≈ 7.37 µg/mL) | 4 (≈ 7.37 µg/mL) | 4 µM (≈ 7.37 µg/mL) | 4 (≈ 7.37 µg/mL) | >512 | >512 | >512 | >512 | >512 | >512 | >512 | >512 | 68.37 | 11.9 |  |  |  |  |  |  |  |

— publication PMC9221509, “Discovery of a Novel Antimicrobial Peptide, Temporin-PKE, from the Skin Secretion of Pelophylax kl. esculentus, and Evaluation of Its Structure-Activity Relationships” (Biomolecules, 2022)
